Entries after “also recorded” stand apart in the source; their conditions may differ.
Legend:
[1] = test system: T47D-HTR cells; test: Clonogenic cell survival, hydroxy-Tam-resistant T47D-HTR cells; type: cell-based, human; settings: 5 μM GC4419 for 5 days
Description: Clonogenic cell survival assay. For the clonogenic survival analysis, exponentially growing cells were replated using appropriate dilutions, and clonogenic survival was evaluated after 14 days in regular growth medium. Cells were stained with crystal violet, and colonies of >50 cells were counted and utilized to calculate clonogenic survival^46.
To test parameters indicative of oxidative stress, a clonogenic assay with hydroxy-Tam and antioxidant treatments was performed. Cells were plated at a density of 50,000 cells per 60-mm dish and treated with 1 μM hydroxy-Tam (Sigma) and 5 μM GC4419 (Galera Therapeutics) for a total of 120 h. This protocol was repeated with a fresh medium change every 24 h for 5 days. On day 6, the cells were trypsinized, counted, and replated in control medium using appropriate dilutions, and clonogenic survival was evaluated.

[2] = test system: MCF7-HTR cells; test: Ki-67 staining, MCF7-HTR cells; type: cell-based, human; settings: 5 μM GC4419 and/or 1 μM 4-hydroxy-Tam for 5 days
Description: With respect to FIG. 16a, the data from FIG. 7i, where MCF7-HTR cells were stained for Ki-67, as well as DAPI, were counted with ImageJ and quantified for average Ki-67 intensity as shown in the bar graph. With respect to FIGS. 16b and 16c, T47D and T47D-HTR cells were stained for Ki-67 as well as DAPI, and particles in the nucleus were counted with ImageJ and quantified for average Ki-67 intensity as shown in the bar graph. In FIGS. 16d and 16e, MCF7-HTR cells, and in FIGS. 16f and 16g, T47D-HTR cells, were treated with 5 μM GC4419 and/or 1 μM 4-hydroxy-Tam for 5 days, and then stained for Ki-67 as well as DAPI. Quantifications of average Ki-67 intensity are shown in the bar graphs. All experiments were done in triplicate. Error bars represent ±1 SEM. ***p<0.001. Representative images are shown.
Cells seeded on glass coverslips were fixed in 4% paraformaldehyde and then blocked with 1% BSA and 10% normal goat serum in 1×PBS. Cells were incubated with anti-Ki-67 (c-bioscience) antibody in 1×PBS followed by incubation with goat anti-rabbit IgG conjugated with Alexa Fluor 647 (Invitrogen) in 1×PBS with 5% goat serum. Cells were washed in 1×PBS, mounted, and imaged with a fluorescence microscope. Fluorescence images were captured using a laser scanning confocal microscope (Nikon A1R). The paired images in all the figures were collected at the same gain and offset settings. […]

[3] = test system: MCF7-MnSOD^K68Q cells; test: Ki-67 staining, MCF7-MnSOD^K68Q cells; type: cell-based, human; settings: 5 μM GC4419 and/or 1 μM 4-hydroxy-Tam for 5 days
Description: (§1) MCF7-MnSOD^K68Q cells (in FIGS. 17a and 17b) and T47D-MnSOD^K68Q cells (in FIGS. 17c and 17d) were treated with 5 μM GC4419 and/or 1 μM 4-hydroxy-Tam for 5 days, and then stained for Ki-67 as well as DAPI. Quantifications of average Ki-67 intensity are shown in the bar graphs. In FIG. 17e, MCF7 and MCF7-HTR cells were implanted into both hind limbs of nude mice and tumor volumes were measured every 3 days for 6 weeks and the number of tumors that successfully implanted versus the total number of mice infected with MCF7 and MCF7-HTR as well as the average tumor weight and tumor size are shown. Representative images are shown. All experiments were done in triplicate. Error bars represent ±1 SEM. ***p<0.001.
(§2) Cells seeded on glass coverslips were fixed in 4% paraformaldehyde and then blocked with 1% BSA and 10% normal goat serum in 1×PBS. Cells were incubated with anti-Ki-67 (c-bioscience) antibody in 1×PBS followed by incubation with goat anti-rabbit IgG conjugated with Alexa Fluor 647 (Invitrogen) in 1×PBS with 5% goat serum. Cells were washed in 1×PBS, mounted, and imaged with a fluorescence microscope. Fluorescence images were captured using a laser scanning confocal microscope (Nikon A1R). The paired images in all the figures were collected at the same gain and offset settings. Post-collection processing was applied uniformly to all paired images.

[4] = test system: T47D-MnSOD^K68Q cells; test: Ki-67 staining, T47D-MnSOD^K68Q cells; type: cell-based, human; settings: 5 μM GC4419 and/or 1 μM 4-hydroxy-Tam for 5 days
Description: as §1, §2

[5] = test system: LNCaP-MnSOD^K68Q cells; test: Clonogenic cell survival, LNCaP-MnSOD^K68Q cells; type: cell-based; settings: ENZ with GC4419 (20 μM) for 5 days
Description: In FIG. 21(a), clonogenic cell survival experiments were performed in LNCaP-ENZR (left two bars) and LNCaP-MnSOD^K68Q (right two bars) treated with ENZ, with or without GC4419 (20 μM) for 5 days. […] Tumor volumes were measured three times a week for 46 days. For each group n=10. Error bars ±1 SEM. All experiments done in triplicate. **p<0.01.

[6] = test system: MCF7-Cispl-R cells; test: Cisplatin sensitivity, MCF7-Cispl-R cells; type: cell-based, human; settings: MCF7-Cispl-R treated with GC4419
[7] = test system: Sirt3^−/−-MT-SIRT3^DN tumor cells; test: Mammary allograft tumor growth (bioluminescence), Sirt3^−/−-MT-SIRT3^DN; type: in vivo; settings: Sirt3^−/−-MT-SIRT3^DN allografts, nude mice, IP every other day for five weeks
Description: Mice were subsequently injected with luciferin potassium (120 mg/kg) every week and signal intensity will be quantified. Error bars represent one SD from the mean.
These cell lines were subsequently infected with and selected to express either a SIRT3 wild-type (Sirt3^−/−-MT-SIRT3^WT) or deacetylation null (Sirt3^−/−-MT-SIRT3^DN) gene and a lenti-luciferase to assess tumor growth by bioluminescence. Allograft tumor mice were split into four groups: (1) control, untreated Sirt3^−/−-MT-SIRT3^DN; (2) GC4419 treated Sirt3^−/−-MT-SIRT3^DN; (3) control, untreated Sirt3^−/−-MT-SIRT3^WT; and (4) GC4419 treated Sirt3^−/−-MT-SIRT3^WT.

[8] = test system: Tam resistant as well as loss of Sirt3 tumor cell lines; test: In vitro Tam resistance, Tam resistant and loss of Sirt3 tumor cell lines; type: cell-based; settings: data not shown
[9] = test system: MCF-7-MnSOD^K68Q cells; test: Clonogenic cell survival after 5 Gy ionizing radiation, MCF-7-MnSOD^K68Q cells; type: cell-based, human; settings: 5 μM GC4419 for 5 days, then 5 Gy ionizing radiation
Description: FIGS. 30a-30b are plots showing that expression of MnSOD^K68Q induces ionizing radiation resistance (IRR) in MCF7 cells. […] All experiments were done in triplicate. Error bars represent±1 SEM. ***p<0.001. Data were analyzed by a t-test.
To determine if the MnSOD-K68-Ac-ROS axis plays a role in IRR, it was hypothesized that MnSOD acetylation might play a role in how tumor cells are reprogrammed to produce a IRR phenotype. To address this idea, an established tumor cell line MCF-7 was infected with lenti-MnSOD^K68Q to induce MnSOD^K68Q expression, which was validated. MCF-7-MnSOD^WT and MCF-7-MnSOD^K68Q cells were treated without or with 5 Gy of IR.

[10] = test system: rat; settings: rat model; cited from earlier work
[11] = test system: head-and-neck cancer patients; settings: head-and-neck cancer patients undergoing chemoradiation therapy; cited from earlier work

In the case of `[Cl][Mn][Cl].c1cc2nc(c1)CN[C@H]1CCCC[C@@H]1NCCN[C@H]1CCCC[C@@H]1NC2` [GC4419], the “sensitivity to hydroxy-Tam (clonogenic cell survival)” value [1] was “became sensitive to hydroxy-Tam”, the Ki-67 staining [2] was “exhibited decreased Ki-67 IHC staining” and the Ki-67 staining [3] was “reversed the increase in Ki-67 IHC staining; also recorded: decreased Ki-67 levels”. The Ki-67 staining [4] was “reversed the increase in Ki-67 IHC staining; also recorded: decreased Ki-67 levels”, the “ENZ resistance phenotype (clonogenic cell survival)” value [5] was “converted to a sensitive phenotype; also recorded: reversed the ENZR” and the cisplatin resistance phenotype [6] was “converted the Cispl-R cells to a sensitive phenotype”. The allograft tumor growth [7] was “significant decrease in tumor growth; also recorded: tumor growth is inhibited”, the “Tam resistance in vitro” value [8] was “reverses Tam resistance” and the “ionizing radiation resistance (IRR) phenotype, clonogenic cell survival” value [9] was “reversed the IRR phenotype”. The “VEGFr inhibitor-induced pulmonary disease” value [10] was “attenuate VEGFr inhibitor-induced pulmonary disease” and the oral mucositis [11] was “reduce oral mucositis”.
